Measured values: ChEMBL document CHEMBL5113434, “Discovery of novel Thieno[2,3-d]imidazole derivatives as agonists of human STING for antitumor immunotherapy using systemic administration” (Eur J Med Chem, 2022)
The source made the active and inactive calls. The calls are words filed in the database; no cut-off is given here.

Columns and labels:
[1] = target: T1, Stimulator of interferon genes protein (Homo sapiens, UniProt Q86WV6); test: Agonist activity at STING in human THP1-Dual cells assessed as fold change in ISG activation at 10 uM incubated for 24 hrs by Quanti-luc reagent based assay relative to control; type: cell-based; conditions: filed as agonist
[2] = target: T2, Stimulator of interferon genes protein (Mus musculus) (UniProt Q3TBT3); test: Agonist activity at STING in mouse RAW-Lucia ISG cells assessed as fold change in ISG activation at 50 uM incubated for 24 hrs by Quanti-luc reagent based assay relative to control; type: cell-based; conditions: filed as agonist
T2 sequence (whole entry): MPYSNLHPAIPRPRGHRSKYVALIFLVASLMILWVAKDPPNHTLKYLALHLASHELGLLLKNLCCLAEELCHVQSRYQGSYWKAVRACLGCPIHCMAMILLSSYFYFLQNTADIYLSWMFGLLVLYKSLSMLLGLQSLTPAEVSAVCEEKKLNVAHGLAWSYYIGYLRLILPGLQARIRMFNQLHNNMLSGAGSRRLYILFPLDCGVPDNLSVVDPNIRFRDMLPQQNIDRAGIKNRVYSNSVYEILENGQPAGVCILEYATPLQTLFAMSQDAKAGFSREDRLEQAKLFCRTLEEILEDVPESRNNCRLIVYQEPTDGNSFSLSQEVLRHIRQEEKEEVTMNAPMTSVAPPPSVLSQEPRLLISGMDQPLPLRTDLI

[3] = target: T1, Stimulator of interferon genes protein; test: Agonist activity at STING in human THP1-Dual cells assessed as ISG activation incubated for 24 hrs by Quanti-luc reagent based assay; type: cell-based
[4] = target: T3, Stimulator of interferon genes protein (Mus musculus, UniProt Q3TBT3); test: Agonist activity at STING in mouse RAW-Lucia ISG cells assessed as ISG activation incubated for 24 hrs by Quanti-luc reagent based assay; type: cell-based
T3 sequence (Q3TBT3 whole entry): T2 sequence (whole entry)

[5] = Half life in BALB/c mouse at 1 mg/kg, iv measured up to 24 hrs by UPLC-MS/MS analysis; type: ADME, organism-based; conditions: in vivo
[6] = AUClast in BALB/c mouse at 1 mg/kg, iv measured up to 24 hrs by UPLC-MS/MS analysis; type: ADME, organism-based; design: time < 24 hrs, dose 1 mg/kg, route iv; conditions: in vivo
[7] = Observed AUC infinity in BALB/c mouse at 1 mg/kg, iv measured up to 24 hrs by UPLC-MS/MS analysis; type: ADME, organism-based; design: dose 1 mg/kg, time < 24 hrs, route iv; conditions: in vivo
[8] = Observed clearance in BALB/c mouse at 1 mg/kg, iv measured up to 24 hrs by UPLC-MS/MS analysis; type: ADME, organism-based; conditions: in vivo
[9] = Observed volume of distribution at steady state in BALB/c mouse at 1 mg/kg, iv measured up to 24 hrs by UPLC-MS/MS analysis; type: ADME, organism-based; conditions: in vivo, read-out: Vdss
[10] = Agonist activity at human STING R232H mutant
[11] = target: T1, Stimulator of interferon genes protein; test: Activation of STING pathway in human THP1-Dual cells assessed as increase in IFNbeta expression level at 0.01 to 1 uM measured for 24 hrs by chemiluminescence based analysis; type: cell-based; conditions: filed as activator, dose 0.01-1 µM
[12] = target: T1, Stimulator of interferon genes protein; test: Activation of STING pathway in human THP1-Dual cells assessed as increase in IFNbeta expression level at 0.1 uM measured for 24 hrs by chemiluminescence based analysis; type: cell-based; conditions: filed as activator
[13] = target: T1, Stimulator of interferon genes protein; test: Activation of STING pathway in human THP1-Dual cells assessed as increase in IP-10 expression level at 0.01 to 1 uM measured for 24 hrs by chemiluminescence based analysis; type: cell-based; conditions: filed as activator, dose 0.01-1 µM
[14] = target: T1, Stimulator of interferon genes protein; test: Activation of STING pathway in human THP1-Dual cells assessed as increase in IP-10 expression level at 0.1 uM measured for 24 hrs by chemiluminescence based analysis; type: cell-based; conditions: filed as activator
[15] = target: T1, Stimulator of interferon genes protein; test: Activation of STING pathway in human 293T-Dual hSTING-H232 cells assessed as increase in IFNbeta expression level measured for 24 hrs by SEAP reporter based Quanti-luc assay; type: cell-based; conditions: filed as activator, dose 0.01-1 µM, DDE = dose-dependent effect
[16] = target: T1, Stimulator of interferon genes protein; test: Activation of STING pathway in human 293T-Dual hSTING-H232 cells assessed as increase in ISG expression level measured for 24 hrs by SEAP reporter based Quanti-luc assay; type: cell-based; conditions: filed as activator, dose 0.01-1 µM, DDE = dose-dependent effect
[17] = target: T1, Stimulator of interferon genes protein; test: Agonist activity at wild type human STING in HEK cells; type: cell-based

T1 sequence (Q86WV6 whole entry): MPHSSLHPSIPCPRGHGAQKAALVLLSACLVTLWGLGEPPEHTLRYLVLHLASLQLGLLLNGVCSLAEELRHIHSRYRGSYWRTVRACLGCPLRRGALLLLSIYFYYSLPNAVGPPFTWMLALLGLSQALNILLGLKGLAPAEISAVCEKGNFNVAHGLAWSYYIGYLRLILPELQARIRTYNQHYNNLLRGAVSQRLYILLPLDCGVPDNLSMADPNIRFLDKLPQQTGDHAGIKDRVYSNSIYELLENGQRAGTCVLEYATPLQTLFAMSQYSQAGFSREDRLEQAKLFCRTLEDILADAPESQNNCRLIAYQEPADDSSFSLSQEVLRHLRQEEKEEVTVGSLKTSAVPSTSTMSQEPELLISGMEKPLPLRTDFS

SMILES: CCn1nc(C)cc1C(=O)Nc1nc2cc(C(N)=O)sc2n1C/C=C/Cn1c(NC(=O)c2cc(C)nn2CC)nc2cc(C(N)=O)cc(O[C@H]3CCOC3)c21
- fold change (FC) [1]: 80.3
- fold change (FC) [2]: 1.5
- EC50 [3]: 1860 nM
- EC50 [4]: > 100000 nM

SMILES: CCn1nc(C)cc1C(=O)Nc1nc2cc(NC(C)=O)ccc2n1CCCCn1c(NC(=O)c2cc(C)nn2CC)nc2cc(C(N)=O)cc(OCCCN3CCOCC3)c21
- fold change (FC) [1]: 2.32
- fold change (FC) [2]: 1.18

SMILES: CCn1nc(C)cc1C(=O)Nc1nc2cc(C(N)=O)cc(OC)c2n1C/C=C/Cn1c(NC(=O)c2cc(C)nn2CC)nc2cc(C(N)=O)cc(OCCCN3CCOCC3)c21
- half-life [5]: 1.14 h
- AUC(0-t) at 24 h [6]: 657 ng·h/mL
- AUC(0-inf) [7]: 666 ng·h/mL
- clearance [8]: 26 mL/min/kg
- Vd [9]: 0.965 L/kg

SMILES: CCn1nc(C)cc1C(=O)Nc1nc2cc(NC(=O)CN)ccc2n1CCCCn1c(NC(=O)c2cc(C)nn2CC)nc2cc(C(N)=O)cc(OCCCN3CCOCC3)c21
- fold change (FC) [1]: 11
- fold change (FC) [2]: 1.39

SMILES: CCn1nc(C)cc1C(=O)Nc1nc2cc(C(N)=O)sc2n1C/C=C/Cn1c(NC(=O)c2cc(C)nn2CC)nc2cc(C(N)=O)cc(OC3COC3)c21
- fold change (FC) [1]: 49.2
- fold change (FC) [2]: 10.2
- EC50 [3]: 1560 nM
- EC50 [4]: > 100000 nM

SMILES: CCn1nc(C)cc1C(=O)/N=c1\[nH]c2cc(C(N)=O)cc(OC)c2n1C/C=C/Cn1/c(=N/C(=O)c2cc(C)nn2CC)[nH]c2cc(C(N)=O)cc(OCCCN3CCOCC3)c21
- EC50 [10]: 200 nM
- Activity [11]: Active
- Activity [12]: Active
- Activity [13]: Active
- Activity [14]: Active
- Activity [15]: Dde
- Activity [16]: Dde

SMILES: O=C(NCc1ccco1)c1ccc2c(c1)N(Cc1c(F)cccc1Cl)C(=O)CS2
- EC50 [17]: 2490 nM

SMILES: CCn1nc(C)cc1C(=O)Nc1nc2sc(C(N)=O)cc2n1CCCCn1c(NC(=O)c2cc(C)nn2CC)nc2cc(C(N)=O)cc(OCCCN3CCOCC3)c21
- fold change (FC) [1]: 1.15
- fold change (FC) [2]: 1
